Test results taken from the RepoRT retention time repository (doi:10.1016/j.chroma.2012.12.030).

Test: RP, Waters ACQUITY UPLC BEH C18, 100 × 2.1 mm, 1.7 µm, 60 °C, 0.3 mL/min, estimated dead time 0.73 min; A: water + 0.01% formic acid; B: methanol + 0.01% formic acid; gradient (min/%B) 0/10 14/90 16/90
Settings: stereoisomer not certain

**Q.** With `CC1=CC2OC3C(O)CC(C)(C34CO4)C2(CO)C(O)C1=O` (stereo unspecified) as the compound, how does the LC retention time read?
**A.** 2.83 min

**Q.** Which LC retention time does the source give for `CC(=O)Nc1ccc(O)cc1` here?
**A.** 2.05 min

**Q.** For `CCNC(C)Cc1ccc2c(c1)OCO2` (stereo unspecified), which LC retention time is on record?
**A.** 3.48 min

**Q.** For `CCNc1nc(NC(C)(C)C)nc(SC)n1`, which LC retention time is on record?
**A.** 10.6 min

**Q.** For `CCCCC1=NC2(CCCC2)C(=O)N1Cc1ccc(-c2ccccc2-c2nn[nH]n2)cc1`, which LC retention time is on record?
**A.** 10.3 min

**Q.** Which LC retention time does the source give for `COc1nn(CSP(=S)(OC)OC)c(=O)s1` here?
**A.** 9.06 min

**Q.** Which LC retention time does the source give for `CCn1cc(C(=O)O)c(=O)c2cc3c(cc21)OCO3` here?
**A.** 5.67 min

**Q.** Which LC retention time does the source give for `CCOC(=O)CC(SP(=S)(OC)OC)C(=O)OCC` (stereo unspecified) here?
**A.** 11 min

**Q.** For `CC(C)N1C(=O)c2ccccc2NS1(=O)=O`, which LC retention time is on record?
**A.** 6.66 min

**Q.** Which LC retention time does the source give for `CCCCC(C)C(OC(=O)CC(CC(=O)O)C(=O)O)C(CC(C)CC(O)CCCCC(O)CC(O)C(C)N)OC(=O)CC(CC(=O)O)C(=O)O` (stereo unspecified) here?
**A.** 9.48 min

**Q.** Which LC retention time does the source give for `COP(=S)(OC)SCn1nnc2ccccc2c1=O` here?
**A.** 11.5 min

**Q.** For `CCCCOC(=O)c1ccc(O)cc1`, which LC retention time is on record?
**A.** 10.3 min

**Q.** For `CCCCC(=O)N(Cc1ccc(-c2ccccc2-c2nn[nH]n2)cc1)C(C(=O)O)C(C)C` (stereo unspecified), which LC retention time is on record?
**A.** 10.6 min

**Q.** With `COCC(=O)N(c1c(C)cccc1C)C(C)C(=O)OC` (stereo unspecified) as the compound, how does the LC retention time read?
**A.** 9.09 min

**Q.** For `COc1cc2c(c3oc(=O)c4c(c13)CCC4=O)C1(O)C=COC1O2` (stereo unspecified), which LC retention time is on record?
**A.** 6.04 min

**Q.** Which LC retention time does the source give for `CNC(=O)ON=C(C)SC` here?
**A.** 3.09 min

**Q.** For `CCN(CC)c1nc(C)cc(OP(=S)(OC)OC)n1`, which LC retention time is on record?
**A.** 12 min

**Q.** For `CC(N)Cc1ccc2c(c1)OCO2` (stereo unspecified), which LC retention time is on record?
**A.** 2.97 min

**Q.** With `CCC1OC(=O)CC(O)C(C)C(OC2OC(C)C(OC3CC(C)(O)C(O)C(C)O3)C(N(C)C)C2O)C(CC=O)CC(C)C(=O)C=CC(C)=CC1COC1OC(C)C(O)C(OC)C1OC` (stereo unspecified) as the compound, how does the LC retention time read?
**A.** 8.84 min

**Q.** Which LC retention time does the source give for `CNC(C)Cc1ccc2c(c1)OCO2` (stereo unspecified) here?
**A.** 3.02 min

**Q.** Which LC retention time does the source give for `CC(N)Cc1ccccc1` (stereo unspecified) here?
**A.** 2.8 min

**Q.** With `Nc1ccc(S(=O)(=O)Nc2ncccn2)cc1` as the compound, how does the LC retention time read?
**A.** 2.09 min

**Q.** For `CC(C)N1C(=O)N(c2ccccc2)CSC1=NC(C)(C)C`, which LC retention time is on record?
**A.** 13.1 min

**Q.** For `COC(=O)C1C2CCC(CC1OC(=O)c1ccccc1)N2` (stereo unspecified), which LC retention time is on record?
**A.** 5.14 min

**Q.** Which LC retention time does the source give for `CCC1OC(=O)C(C)C(OC2CC(C)(OC)C(O)C(C)O2)C(C)C(OC2OC(C)CC(N(C)C)C2O)C(C)(O)CC(C)CN(C)C(C)C(O)C1(C)O` (stereo unspecified) here?
**A.** 6.2 min

**Q.** With `Cc1onc(-c2ccccc2)c1C(=O)NC1C(=O)N2C1SC(C)(C)C2C(=O)O` (stereo unspecified) as the compound, how does the LC retention time read?
**A.** 8.19 min

**Q.** With `CCCCCc1cc(O)c2c(c1)OC(C)(C)C1CCC(C(=O)O)=CC21` (stereo unspecified) as the compound, how does the LC retention time read?
**A.** 13.9 min

**Q.** For `CC(=O)OCC12CC(OC(=O)CC(C)C)C(C)=CC1OC1C(O)C(OC(C)=O)C2(C)C12CO2` (stereo unspecified), which LC retention time is on record?
**A.** 10 min

**Q.** For `CCCC1CC(C(=O)NC(C(C)O)C2OC(SC)C(O)C(O)C2O)N(C)C1` (stereo unspecified), which LC retention time is on record?
**A.** 3.13 min

**Q.** For `CCNc1nc(NC(C)(C)C)[nH]c(=O)n1`, which LC retention time is on record?
**A.** 5.25 min

**Q.** With `CC12CCC3c4ccc(OS(=O)(=O)O)cc4CCC3C1CCC2O` (stereo unspecified) as the compound, how does the LC retention time read?
**A.** 10.4 min

**Q.** For `CCOP(=S)(OCC)Oc1ccc(=O)n(-c2ccccc2)n1`, which LC retention time is on record?
**A.** 10.7 min

**Q.** With `CNC(=O)CSP(=S)(OC)OC` as the compound, how does the LC retention time read?
**A.** 4.63 min

**Q.** With `CNC(=O)Oc1cccc2c1OC(C)(C)C2` as the compound, how does the LC retention time read?
**A.** 7.48 min

**Q.** Which LC retention time does the source give for `O=C(O)c1ccccc1O` here?
**A.** 4.8 min

**Q.** For `Cc1cc(C2CC2)nc(Nc2ccccc2)n1`, which LC retention time is on record?
**A.** 11.4 min

**Q.** With `CC(=O)OC1(C(C)=O)CCC2C3CC(C)C4=CC(=O)CCC4(C)C3CCC21C` (stereo unspecified) as the compound, how does the LC retention time read?
**A.** 11.7 min

**Q.** For `CC(=O)O[Si](CCCC(O)COC(=O)c1ccc(O)cc1)(OC(C)=O)c1ccccc1` (stereo unspecified), which LC retention time is on record?
**A.** 5.92 min

**Q.** For `Cc1c(N)c(=O)n(-c2ccccc2)n1C`, which LC retention time is on record?
**A.** 3.48 min

**Q.** Which LC retention time does the source give for `COC(=O)C1C(OC(=O)c2ccccc2)CC2CCC1N2C` (stereo unspecified) here?
**A.** 4.66 min

**Q.** Which LC retention time does the source give for `COC(=O)Nc1nc2ccccc2[nH]1` here?
**A.** 3.89 min

**Q.** With `CCCCC(C)C(OC(=O)CC(CC(=O)O)C(=O)O)C(CC(C)CCCCCCC(O)CC(O)C(C)N)OC(=O)CC(CC(=O)O)C(=O)O` (stereo unspecified) as the compound, how does the LC retention time read?
**A.** 11 min

**Q.** With `CC(C(=O)O)c1cccc(C(=O)c2ccccc2)c1` (stereo unspecified) as the compound, how does the LC retention time read?
**A.** 9.5 min

**Q.** Which LC retention time does the source give for `Cc1ccc(C)c(OCCCC(C)(C)C(=O)O)c1` here?
**A.** 12.8 min

**Q.** Which LC retention time does the source give for `Cc1nc(N(C)C)nc(OC(=O)N(C)C)c1C` here?
**A.** 7.79 min

**Q.** With `NC(=O)N1c2ccccc2C=Cc2ccccc21` as the compound, how does the LC retention time read?
**A.** 8.1 min

**Q.** For `CC(C)c1ccc(NC(=O)N(C)C)cc1`, which LC retention time is on record?
**A.** 8.83 min

**Q.** With `COc1cc2c(c3oc(=O)c4c(c13)CCOC4=O)C1C=COC1O2` (stereo unspecified) as the compound, how does the LC retention time read?
**A.** 6.35 min

**Q.** With `C=C1CC2C3C=C(C)C4=CC(=O)CCC4(C)C3CCC2(C)C1(OC(C)=O)C(C)=O` (stereo unspecified) as the compound, how does the LC retention time read?
**A.** 11.8 min

**Q.** For `CC(=O)OC1(C(C)=O)CCC2C3C=C(C)C4=CC(=O)CCC4(C)C3CCC21C` (stereo unspecified), which LC retention time is on record?
**A.** 11.5 min

**Q.** With `COc1cc2c(c3oc(=O)c4c(c13)CCC4=O)C1C=COC1O2` (stereo unspecified) as the compound, how does the LC retention time read?
**A.** 7.15 min
